What follows are compounds tested on recombinant NL4-3 virus (NLRluc, Renilla luciferase in nef, Gag P373S) in MT-2 cells (assay: HIV Cell Culture Assay (luciferase reporter virus in MT-2 cells)). Conditions: NL43, 96 h, read-out: 10% FBS (EC50, uM).
Type: cell-based
Experimental: HIV Cell Culture Assay—MT-2 cells and 293T cells were obtained from the NIH AIDS Research and Reference Reagent Program. MT-2 cells were propagated in RPMI 1640 media supplemented with 10% heat inactivated fetal bovine serum, […]. The 293T cells were propagated in DMEM media supplemented with 10% heat inactivated fetal bovine serum (FBS), 100 units/ml penicillin G and 100 μg/ml streptomycin. The proviral DNA clone of NL4-3 was obtained from the NIH AIDS Research and Reference Reagent Program. A recombinant NL4-3 virus, in which a section of the nef gene from NL4-3 was replaced with the Renilla luciferase gene, was used as a reference virus. In addition, residue Gag P373 was converted to P373S. Briefly, the recombinant virus was prepared by transfection of the altered proviral clone of NL4-3. Transfections were performed in 293T cells using LipofectAMINE PLUS from Invitrogen (Carlsbad, Calif.), according to manufacturer's instruction. The virus was titered in MT-2 cells using luciferase enzyme activity as a marker. Luciferase was quantitated using the Dual Luciferase kit from Promega (Madison, Wis.), with modifications to the manufacturer's protocol. The diluted Passive Lysis solution was pre-mixed with the re-suspended Luciferase Assay Reagent and the re-suspended Stop & Glo Substrate (2:1:1 ratio). Fifty (50) μL of the mixture was added to each aspirated well on assay plates and luciferase activity was measured immediately on a Wallac TriLux (Perkin-Elmer). Antiviral activities of inhibitors toward the recombinant virus were quantified by measuring luciferase activity in cells infected for 4-days with NLRluc recombinants in the presence serial dilutions of the inhibitor. Table 1 is the key for the data in Table 2. Results

Structure (SMILES)	EC50
C=C(C)[C@@H]1CC[C@]2(NCCN3CCOCC3)CC[C@]3(C)[C@H](CC[C@@H]4[C@@]5(C)CC[C@H](OC(=O)CC(C)(C)C(=O)O)C(C)(C)[C@@H]5CC[C@]43C)[C@@H]12 [Example 5, 2,2-dimethyl-4-oxo-4-((1R,3aS,5aR,5bR,7aR,9S,11aR,13aR,13bR)-5a,5b,8,8,11a-pentamethyl-3a-(2-morpholinoethylamino)-1-(prop-1-en-2-yl)icosahydro-1H-cyclopenta[a]chrysen-9-yloxy)butanoic acid]	< 0.1 µM
C=C(C)[C@@H]1CC[C@]2(NCCN3CCS(=O)(=O)CC3)CC[C@]3(C)[C@H](CC[C@@H]4[C@@]5(C)CC[C@H](OC(=O)CC(C)(C)C(=O)O)C(C)(C)[C@@H]5CC[C@]43C)[C@@H]12 [Example 2, 4-(((1R,3aS,5aR,5bR,7aR,9S,11aR,13aR,13bR)-3a-((2-(1,1-dioxido-4-thiomorpholinyl)ethyl)amino)-1-isopropenyl-5a,5b,8,8,11a-pentamethylicosahydro-1H-cyclopenta[a]chrysen-9-yl)oxy)-2,2-dimethyl-4-oxobutanoic acid]	< 0.1 µM
C=C(C)[C@@H]1CC[C@]2(NCCN3CCN(S(C)(=O)=O)CC3)CC[C@]3(C)[C@H](CC[C@@H]4[C@@]5(C)CC[C@H](OC(=O)CC(C)(C)C(=O)O)C(C)(C)[C@@H]5CC[C@]43C)[C@@H]12 [Example 11, 2,2-dimethyl-4-oxo-4-(((1R,3aS,5aR,5bR,7aR,9S,11aR,11bR,13aR,13bR)-5a,5b,8,8,11a-pentamethyl-3a-((2-(4-(methylsulfonyl)piperazin-1-yl)ethyl)amino)-1-(prop-1-en-2-yl)icosahydro-1H-cyclopenta[a]chrysen-9-yl)oxy)butanoic acid]	< 0.1 µM
C=C(C)[C@@H]1CC[C@]2(NCCN3CCS(=O)(=O)CC3)CC[C@]3(C)[C@H](CC[C@@H]4[C@@]5(C)CC[C@H](OC(=O)CC(C)(C)CC(=O)O)C(C)(C)[C@@H]5CC[C@]43C)[C@@H]12 [Example 3, 5-(((1R,3aS,5aR,5bR,7aR,9aR,9S,11aR,3aR,13bR)-3a-((2-(1,1-dioxido-4-thiomorpholinyl)ethyl)amino)-1-isopropenyl-5a,5b,8,8,11a-pentamethylicosahydro-1H-cyclopenta[a]chrysen-9-yl)oxy)-3,3-dimethyl-5-oxopentanoic acid]	< 0.1 µM
CC(C)[C@@H]1CC[C@]2(NCCN3CCS(=O)(=O)CC3)CC[C@]3(C)[C@H](CC[C@@H]4[C@@]5(C)CC[C@H](OC(=O)CC(C)(C)C(=O)O)C(C)(C)[C@@H]5CC[C@]43C)[C@@H]12 [Example 6, 4-(((1S,3aS,5aR,5bR,7aR,9S,11aR,13aR,13bR)-3a-((2-(1,1-dioxido-4-thiomorpholinyl)ethyl)amino)-1-isopropyl-5a,5b,8,8,11a-pentamethylicosahydro-1H-cyclopenta[a]chrysen-9-yl)oxy)-2,2-dimethyl-4-oxobutanoic acid]	< 0.1 µM
C=C(C)[C@@H]1CC[C@]2(NCCN3CCOCC3)CC[C@]3(C)[C@H](CC[C@@H]4[C@@]5(C)CC[C@H](OC(=O)C(C)(C)CC(=O)O)C(C)(C)[C@@H]5CC[C@]43C)[C@@H]12 [Example 4, 3,3-dimethyl-4-oxo-4-((1R,3aS,5aR,5bR,7aR,9S,11aR,13aR,13bR)-5a,5b,8,8,11a-pentamethyl-3a-(2-morpholinoethylamino)-1-(prop-1-en-2-yl)icosahydro-1H-cyclopenta[a]chrysen-9-yloxy)butanoic acid]	< 0.1 µM
CC(C)[C@@H]1CC[C@]2(NCCN3CCS(=O)(=O)CC3)CC[C@]3(C)[C@H](CC[C@@H]4[C@@]5(C)CC[C@H](OC(=O)CC(C)(C)CC(=O)O)C(C)(C)[C@@H]5CC[C@]43C)[C@@H]12 [Example 7, 5-(((1S,3aS,5aR,5bR,7aR,9aR,9S,11aR,3aR,13bR)-3a-((2-(1,1-dioxido-4-thiomorpholinyl)ethyl)amino)-1-isopropyl-5a,5b,8,8,11a-pentamethylicosahydro-1H-cyclopenta[a]chrysen-9-yl)oxy)-3,3-dimethyl-5-oxopentanoic acid]	< 0.1 µM
C=C(C)[C@@H]1CC[C@]2(NCCN3CCC(S(C)(=O)=O)CC3)CC[C@]3(C)[C@H](CCC4[C@@]5(C)CC[C@H](OC(=O)CC(C)(C)C(=O)O)C(C)(C)[C@@H]5CC[C@]43C)[C@@H]12 (stereo partly drawn) [Example 9, 2,2-dimethyl-4-oxo-4-(((1R,3aS,5aR,5bR,7aR,9S,11aR,13aR,13bR)-5a,5b,8,8,11a-pentamethyl-3a-((2-(4-(methylsulfonyl)piperidin-1-yl)ethyl)amino)-1-(prop-1-en-2-yl)icosahydro-1H-cyclopenta[a]chrysen-9-yl)oxy)butanoic acid]	< 0.1 µM
C=C(C)[C@@H]1CC[C@]2(NCCN3CCS(=O)(=O)CC3)CC[C@]3(C)[C@H](CC[C@@H]4[C@@]5(C)CC[C@H](OC(=O)C(C)(C)CC(=O)O)C(C)(C)[C@@H]5CC[C@]43C)[C@@H]12 [Example 1, 4-(((1R,3aS,5aR,5bR,7aR,9S,11aR,13aR,13bR)-3a-((2-(1,1-dioxido-4-thiomorpholinyl)ethyl)amino)-1-isopropenyl-5a,5b,8,8,11a-pentamethylicosahydro-1H-cyclopenta[a]chrysen-9-yl)oxy)-3,3-dimethyl-4-oxobutanoic acid]	< 0.1 µM
C=C(C)[C@@H]1CC[C@]2(NCCN(C)C)CC[C@]3(C)[C@H](CC[C@@H]4[C@@]5(C)CC[C@H](OC(=O)CC(C)(C)C(=O)O)C(C)(C)[C@@H]5CC[C@]43C)[C@@H]12 [Example 10, 4-(((1R,3aS,5aR,5bR,7aR,9S,11aR,13aR,13bR)-3a-((2-(dimethylamino)ethyl)amino)-5a,5b,8,8,11a-pentamethyl-1-(prop-1-en-2-yl)icosahydro-1H-cyclopenta[a]chrysen-9-yl)oxy)-2,2-dimethyl-4-oxobutanoic acid]	< 0.1 µM
C=C(C)[C@@H]1CC[C@]2(NCCN3CCC(S(C)(=O)=O)CC3)CC[C@]3(C)[C@H](CC[C@@H]4[C@@]5(C)CC[C@H](OC(=O)C(C)(C)CC(=O)O)C(C)(C)[C@@H]5CC[C@]43C)[C@@H]12 [Example 8, 3,3-dimethyl-4-oxo-4-(((1R,3aS,5aR,5bR,7aR,9S,11aR,13aR,13bR)-5a,5b,8,8,11a-pentamethyl-3a-((2-(4-(methylsulfonyl)piperidin-1-yl)ethyl)amino)-1-(prop-1-en-2-yl)icosahydro-1H-cyclopenta[a]chrysen-9-yl)oxy)butanoic acid]	< 0.1 µM

— US8754069B2, “Betulinic acid derivatives with antiviral activity” (priority 2011, dated 2014)
